Key:
CCRF-CEM [1] = assay: Cytotoxicity against human CCRF-CEM cells incubated for 72 hrs by MTS assay; type: functional, cell-based
BJ = assay: Cytotoxicity against human BJ cells incubated for 72 hrs by MTS assay; type: cell-based
HCT-116 [2] = assay: Cytotoxicity against p53-deficient human HCT-116 cells incubated for 72 hrs by MTS assay; type: functional, cell-based; settings: HCT-116, 72 h
HCT-116 [3] = assay: Cytotoxicity against human HCT-116 cells incubated for 72 hrs by MTS assay; type: functional, cell-based; settings: HCT-116, 72 h
K562 [4] = assay: Cytotoxicity against human paclitaxel-resistant K562 cells incubated for 72 hrs by MTS assay; type: functional, cell-based; settings: K562, 72 h
CCRF-CEM [5] = assay: Cytotoxicity against human daunorubicine-resistant CCRF-CEM cells incubated for 72 hrs by MTS assay; type: functional, cell-based
K562 [6] = assay: Cytotoxicity against human K562 cells incubated for 72 hrs by MTS assay; type: functional, cell-based; settings: K562, 72 h
A549 = assay: Cytotoxicity against human A549 cells incubated for 72 hrs by MTS assay; type: functional, cell-based; settings: A549, 72 h
CCRF-CEM [7] = assay: Cell cycle arrest in human CCRF-CEM cells assessed as phosphorylation of histone H3 at Ser10 at IC50 measured after 24 hrs by propidium iodide staining based flow cytometry (reference value: 2.0%); type: functional
CCRF-CEM [8] = assay: Cell cycle arrest in human CCRF-CEM cells assessed as accumulation at G0/G1 phase at 5 times IC50 measured after 24 hrs by propidium iodide staining based flow cytometry (reference value: 35.2%); type: functional
CCRF-CEM [9] = assay: Cell cycle arrest in human CCRF-CEM cells assessed as accumulation at G0/G1 phase at IC50 measured after 24 hrs by propidium iodide staining based flow cytometry (reference value: 35.2%); type: functional
CCRF-CEM [10] = assay: Cell cycle arrest in human CCRF-CEM cells assessed as BrU incorporation at 5 times IC50 measured after 24 hrs by propidium iodide/immunostaining based flow cytometry (reference value: 52.2%); type: functional
CCRF-CEM [11] = assay: Cell cycle arrest in human CCRF-CEM cells assessed as BrdU incorporation at IC50 measured after 24 hrs by propidium iodide/immunostaining based flow cytometry (reference value: 60.0%); type: functional
CCRF-CEM [12] = assay: Cell cycle arrest in human CCRF-CEM cells assessed as accumulation at S phase at IC50 measured after 24 hrs by propidium iodide staining based flow cytometry (reference value: 42.2%); type: functional
CCRF-CEM [13] = assay: Cell cycle arrest in human CCRF-CEM cells assessed as accumulation at sub-G1 phase at 5 times IC50 measured after 24 hrs by propidium iodide staining based flow cytometry (reference value: 2%); type: functional
CCRF-CEM [14] = assay: Cell cycle arrest in human CCRF-CEM cells assessed as accumulation at G2/M phase at IC50 measured after 24 hrs by propidium iodide staining based flow cytometry (reference value: 22.6%); type: functional
CCRF-CEM [15] = assay: Cell cycle arrest in human CCRF-CEM cells assessed as accumulation at S phase at 5 times IC50 measured after 24 hrs by propidium iodide staining based flow cytometry (reference value: 42.2%); type: functional
CCRF-CEM [16] = assay: Cell cycle arrest in human CCRF-CEM cells assessed as BrU incorporation at IC50 measured after 24 hrs by propidium iodide/immunostaining based flow cytometry (reference value: 52.2%); type: functional
CCRF-CEM [17] = assay: Cell cycle arrest in human CCRF-CEM cells assessed as accumulation at sub-G1 phase at IC50 measured after 24 hrs by propidium iodide staining based flow cytometry (reference value: 2%); type: functional
CCRF-CEM [18] = assay: Cell cycle arrest in human CCRF-CEM cells assessed as BrdU incorporation at 5 times IC50 measured after 24 hrs by propidium iodide/immunostaining based flow cytometry (reference value: 60.0%); type: functional
CCRF-CEM [19] = assay: Cell cycle arrest in human CCRF-CEM cells assessed as accumulation at G2/M phase at 5 times IC50 measured after 24 hrs by propidium iodide staining based flow cytometry (reference value: 22.6%); type: functional
CCRF-CEM [20] = assay: Cell cycle arrest in human CCRF-CEM cells assessed as phosphorylation of histone H3 at Ser10 at 5 times IC50 measured after 24 hrs by propidium iodide staining based flow cytometry (reference value: 2.0%); type: functional
Sus scrofa = organism: Sus scrofa; assay: Inhibition of porcine brain tubulin polymerization assessed as Vmax of polymerization at 10 umol/L measured at 60 secs interval for 30 mins by turbidometric method; settings: dose 10.0 µmol/L

| Structure (SMILES) | IC50 (CCRF-CEM [1]) [µM] | IC50 (BJ) [µM] | IC50 (HCT-116 [2]) [µM] | IC50 (HCT-116 [3]) [µM] | IC50 (K562 [4]) [µM] | IC50 (CCRF-CEM [5]) [µM] | IC50 (K562 [6]) [µM] | IC50 (A549) [µM] | further results |
| --- | --- | --- | --- | --- | --- | --- | --- | --- | --- |
| O=c1c(O)c(-c2ccccc2)[nH]c2cc(F)c(N3CCOCC3)cc12 | > 50 | > 50 | > 50 | 5.2 | 12.8 | 11.7 | 19.3 | 13.6 | – |
| O=c1c(O)c(-c2ccc(F)cc2)[nH]c2ccccc12 | 2.4 | > 50 | 36.5 | 34 | 8.6 | 9.4 | 40.4 | 18.1 | Activity (CCRF-CEM [7]): 1.5%; Activity (CCRF-CEM [8]): 45.9%; Activity (CCRF-CEM [9]): 39.6%; Activity (CCRF-CEM [10]): 32.1%; Activity (CCRF-CEM [11]): 35.5%; Activity (CCRF-CEM [12]): 24.2%; Activity (CCRF-CEM [13]): 8.4%; Activity (CCRF-CEM [14]): 36.2%; Activity (CCRF-CEM [15]): 13.5%; Activity (CCRF-CEM [16]): 31.3%; Activity (CCRF-CEM [17]): 4.4%; Activity (CCRF-CEM [18]): 25.2%; Activity (CCRF-CEM [19]): 40.7%; Activity (CCRF-CEM [20]): 1.6% |
| O=c1c(O)c(-c2ccccc2)[nH]c2cc(F)c(F)cc12 | 12.6 | > 50 | 22.6 | 15.1 | 17.4 | 12.8 | 18.9 | 18.2 | – |
| O=c1c(O)c(-c2ccccc2)[nH]c2cc(F)c(N3CCN(CCOCCO)CC3)cc12 | 19.8 | > 50 | 29.4 | > 50 | > 50 | > 50 | 47.7 | > 50 | – |
| O=c1c(O)c(-c2ccccc2)[nH]c2c(F)c(F)c(F)c(F)c12 | 19.5 | > 50 | > 50 | > 50 | 16.8 | > 50 | > 50 | > 50 | – |
| COC(=O)Nc1nc2cc(C(=O)c3cccs3)ccc2[nH]1 | – | – | – | – | – | – | – | – | Vmax (milli optical density/minute) (Sus scrofa): 7.6 |
| CC(=O)O[C@H]1C(=O)[C@@]2(C)[C@H]([C@H](OC(=O)c3ccccc3)[C@]3(O)C[C@H](OC(=O)[C@H](O)[C@@H](NC(=O)c4ccccc4)c4ccccc4)C(C)=C1C3(C)C)[C@]1(OC(C)=O)CO[C@@H]1C[C@@H]2O | – | – | – | – | – | – | – | – | Vmax (milli optical density/minute) (Sus scrofa): 63.3 |
| O=c1c(O)c(-c2ccccc2)[nH]c2ccc(F)cc12 | 17.8 | > 50 | 17.4 | > 50 | 20.3 | 15.3 | 18.8 | 18.8 | – |
| O=c1c(O)c(-c2ccccc2)[nH]c2cc(F)ccc12 | 17.8 | > 50 | 43.9 | > 50 | 21.4 | 17.5 | 21.7 | 19.5 | – |
| O=c1c(O)c(-c2ccccc2F)[nH]c2ccccc12 | 17.4 | > 50 | 34.2 | 35.1 | 22.2 | 50 | 33.7 | 31.7 | – |
| O=c1c(O)c(-c2cccc(F)c2)[nH]c2ccccc12 | 7.3 | > 50 | 50 | 27.1 | 7.5 | 50 | 12.9 | 13.1 | Activity (CCRF-CEM [7]): 1%; Activity (CCRF-CEM [8]): 52.6%; Activity (CCRF-CEM [9]): 34.9%; Activity (CCRF-CEM [10]): 3.8%; Activity (CCRF-CEM [11]): 26.7%; Activity (CCRF-CEM [12]): 32.6%; Activity (CCRF-CEM [13]): 15.9%; Activity (CCRF-CEM [14]): 32.6%; Activity (CCRF-CEM [15]): 19.9%; Activity (CCRF-CEM [16]): 33.7%; Activity (CCRF-CEM [17]): 5.4%; Activity (CCRF-CEM [18]): 22.4%; Activity (CCRF-CEM [19]): 27.5%; Activity (CCRF-CEM [20]): 0.2% |
| O=c1c(O)c(-c2ccccc2)[nH]c2cc(F)cc(F)c12 | 4.6 | > 50 | > 50 | 22.5 | 19.8 | 18 | 21.6 | 19.6 | Activity (CCRF-CEM [7]): 2.1%; Activity (CCRF-CEM [8]): 26.6%; Activity (CCRF-CEM [9]): 33%; Activity (CCRF-CEM [10]): 53.7%; Activity (CCRF-CEM [11]): 65.7%; Activity (CCRF-CEM [12]): 48.4%; Activity (CCRF-CEM [13]): 1.4%; Activity (CCRF-CEM [14]): 18.6%; Activity (CCRF-CEM [15]): 51.6%; Activity (CCRF-CEM [16]): 57.2%; Activity (CCRF-CEM [17]): 0.8%; Activity (CCRF-CEM [18]): 79%; Activity (CCRF-CEM [19]): 21.8%; Activity (CCRF-CEM [20]): 0.9% |

From ChEMBL document CHEMBL4680214, “Fluorinated derivatives of 2-phenyl-3-hydroxy-4(1H)-quinolinone as tubulin polymerization inhibitors” (Eur J Med Chem, 2020)
